In paper PMC9913288, “Suppression of Cancer Cell Stemness and Drug Resistance via MYC Destabilization by Deubiquitinase USP45 Inhibition with a Natural Small Molecule” (Cancers, 2023):

Biological target: T1, USP45 (Homo sapiens, UniProt Q70EL2)
T1 construct: USP45-His purified from E. coli BL21, biotinylated
T1 sequence (Q70EL2 1-814): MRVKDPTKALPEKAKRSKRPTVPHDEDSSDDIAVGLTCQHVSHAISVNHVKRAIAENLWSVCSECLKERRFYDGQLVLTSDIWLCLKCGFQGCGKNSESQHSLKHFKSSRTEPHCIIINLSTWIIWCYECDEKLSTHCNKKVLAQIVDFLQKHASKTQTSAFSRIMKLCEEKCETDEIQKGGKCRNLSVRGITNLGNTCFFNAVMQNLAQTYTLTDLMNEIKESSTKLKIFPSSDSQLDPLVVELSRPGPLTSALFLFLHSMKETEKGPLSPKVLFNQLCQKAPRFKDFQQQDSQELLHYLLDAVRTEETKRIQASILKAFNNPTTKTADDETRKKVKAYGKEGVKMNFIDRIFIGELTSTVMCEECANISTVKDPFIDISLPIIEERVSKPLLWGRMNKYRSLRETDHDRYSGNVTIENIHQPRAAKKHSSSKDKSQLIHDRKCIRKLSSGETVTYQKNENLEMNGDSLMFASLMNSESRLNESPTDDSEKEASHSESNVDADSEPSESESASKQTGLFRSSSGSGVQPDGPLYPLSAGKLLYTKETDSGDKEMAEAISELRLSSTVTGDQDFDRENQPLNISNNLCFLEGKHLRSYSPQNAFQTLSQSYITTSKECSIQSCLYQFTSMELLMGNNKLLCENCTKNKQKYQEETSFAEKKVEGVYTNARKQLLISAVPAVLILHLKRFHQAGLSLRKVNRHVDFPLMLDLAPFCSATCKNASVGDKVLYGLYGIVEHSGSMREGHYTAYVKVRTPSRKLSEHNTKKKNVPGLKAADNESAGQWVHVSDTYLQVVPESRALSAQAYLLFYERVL
Test: BLI (OCTET K2) with purified biotinylated USP45
Format: binding

Structure (SMILES): COc1c(O)cc2oc3cc(O)c(CC=C(C)C)c(O)c3c(=O)c2c1CC=C(C)C [AMG, α-mangostin]
- Kd: 19.3 µM
